Test results from patent US20260345596A1, “TREATMENT OF LOCALLY ADVANCED OR METASTATIC UROTHELIAL CARCINOMA WITH ERDAFINITIB” (priority 2023, published 2026).
“Also recorded” adds a separate entry of the source.

Key:
rats = assay: 3-month repeat-dose toxicity study, female reproductive organs; conditions: exposure less than human AUC at maximum recommended dose
[1] = test system: locally advanced or metastatic urothelial carcinoma with FGFR alterations; assay: Study BLC3001 (NCT03390504, THOR) Cohort 1: efficacy of erdafitinib versus chemotherapy; format: in vivo, human
Description: Subjects are assigned to Cohort 1 or Cohort 2 based upon prior treatment with an anti-PD-(L)1 agent. […] Cohort 1 and Cohort 2 are assessed independently.
Each potential subject must satisfy all of the following criteria to be enrolled in the study: • 1. ≥18 years of age (or the legal age of consent in the jurisdiction in which the study is taking place) • 2. […] Minor components (<50% overall) of variant histology such as glandular or squamous differentiation, or evolution to more aggressive phenotypes such as sarcomatoid or micropapillary change are acceptable • 3. Metastatic or surgically unresectable urothelial cancer • 4. Documented progression of disease, defined as any progression that requires a change in treatment, prior to randomization • 5. Prior treatment with an anti-PD-(L)1 agent as monotherapy or as combination therapy; no more than 2 prior lines of systemic treatment. […] These subjects will however still be eligible only for Cohort 1.
Each dose should be taken at approximately the same time each day, with or without food. The study drug is to be taken with approximately 240 mL (8 ounces) of water. The tablets should be swallowed intact and subjects should not attempt to dissolve them in water, tablets must not be broken or chewed. Subjects should avoid consuming grapefruit or Seville oranges due to CYP450 3A4/5 inhibition.
No concomitant treatment is required for these subjects.
Subjects randomized to chemotherapy in Arm 1B (see FIG. 1) receive vinflunine 320 mg/m2 as a 20-minute intravenous infusion once every 3 weeks or docetaxel 75 mg/m2 as a 1-hour intravenous infusion every 3 weeks. Treatment with either agent will be administered until disease progression, intolerable toxicity, withdrawal of consent or decision by the investigator to discontinue treatment.
The primary endpoint is OS. The primary efficacy analysis is based on the Intent-to-Treat (ITT) population that includes all randomized subjects in each cohort. The Kaplan-Meier method is used to estimate the distribution of OS for each treatment group within each cohort. The stratified log-rank test is used to compare survival curves of OS between the 2 treatment arms. The stratification factors to be used in the analysis are as follows: region (North America vs EU vs rest of world), ECOG performance status (0 or 1 vs 2), and disease distribution (presence vs absence of visceral metastases: lung, liver, or bone). Pre-specified strata combining will be implemented when some strata have too few OS events.
The secondary efficacy endpoints are PFS, ORR (achievement of objective response), and Safety. Secondary end points also included DOR, change from baseline in patient reported outcomes (Functional Assessment of Cancer Therapy—Bladder Cancer, Patient-Global Impression of Severity, and the European Quality of Life—5 Dimensions—5 Levels). PFS is analyzed the same as OS. Kaplan-Meier method is used to estimate the distribution of DOR. ORR is analyzed by Cochran-Mantel-Haenszel chi-square test for randomized subjects with measurable disease at baseline. The analyses of the secondary efficacy endpoints include all randomized subjects (ITT subjects) unless otherwise specified. The family-wise type 1 error is strongly controlled at 5% (2-sided) for the secondary efficacy endpoints.
Ophthalmologic examination at baseline included an Amsler grid test, optical coherence tomography scan (OCT), and ophthalmologic evaluation. An Amsler grid test was conducted at every cycle. Repeat OCT was done as clinically indicated based on the Amsler grid test or clinical assessment.
O'Brien-Fleming boundaries were applied, implemented by the Lan-DeMets spending function for a total Type I error of 0.05. […] Stopping for futility was possible if the hazard ratio at the interim analysis exceeded 1.0, considering the totality of the data.
Descriptive subgroup analyses were conducted, but with no adjustment for multiplicity.

[2] = test system: cell lines expressing FGFR genetic alterations; assay: Cell viability of cell lines expressing FGFR genetic alterations; format: cell-based; conditions: cell lines with FGFR genetic alterations

Structure (SMILES): COc1cc(OC)cc(N(CCNC(C)C)c2ccc3ncc(-c4cnn(C)c4)nc3c2)c1 [Erdafitinib, N-(3,5-dimethoxyphenyl)-N′-(1-methylethyl)-N-[3-(1-methyl-1H-pyrazol-4-yl)quinoxalin-6-yl]ethane-1,2-diamine]
- Effects on female reproductive organs (rats): showed effects on female reproductive organs (necrosis of the ovarian corpora lutea)
- Disease control rate (CR + PR + SD) ([1]; ITT): 112 (82.4%) n (%)
- Progression-free survival (PFS): number of events (%) ([1]; ITT): 101 (74.3%) number (%)
- Overall Survival (OS): number of events (%) ([1]; ITT, 8 mg oral once daily, up-titration to 9 mg, chemotherapy docetaxel or vinflunine): 77 (56.6%) number (%)
- Objective response rate, ORR (CR + PR) ([1]; ITT, RECIST v1.1, investigator): 62 (45.6%) n (%)
- OS events (deaths) ([1]; ITT, at data cut, ~75% information fraction, count): 77
- PFS events ([1]; ITT, at data cut, count): 101
- Not evaluable (NE) ([1]; ITT, best overall response): 10 (7.4%) n (%)
- Progressive disease (PD) ([1]; ITT, best overall response): 14 (10.3%) n (%)
- Complete response, CR (%) ([1]; ITT, best overall response, RECIST v1.1, investigator): 9 (6.6%) n (%)
- Complete response (CR) ([1]; ITT, investigator): 6.6%
- Partial response (PR) ([1]; ITT, investigator): 39.0%
- Patients alive at 6 months ([1]; estimated, (95% CI)): 85% (95% CI, 77 to 90)
- Patients alive at 12 months ([1]; estimated, (95% CI)): 51% (95% CI, 41 to 60)
- Median overall survival (years) ([1]; mUC and FGFR alt after prior anti-PD-(L)1): about 1 year
- Improvement of disease control rate ([1]; versus chemotherapy): about 39%
- Objective response outcome in words ([1]; versus chemotherapy): approximately a four-fold higher probability of achieving an objective response; also recorded: The superiority of Erdafitinib relative to chemotherapy, in terms of ORR, was established; also recorded: significantly greater for Erdafitinib, with similar DOR; also recorded: generally consistent in the subgroups evaluated
- Overall survival outcome in words ([1]; versus chemotherapy): The superiority of Erdafitinib relative to chemotherapy, in terms of OS, was established; also recorded: generally consistent across clinically meaningful subgroups including age group, FGFR alteration type, baseline ECOG PS, presence/absence of visceral metastases and PD-L1 status; also recorded: significantly prolonged or extended OS compared to chemotherapy; also recorded: consistent across clinically relevant subgroups; also recorded: significantly longer with erdafitinib versus chemotherapy; also recorded: significantly prolonged median overall survival compared with chemotherapy
- Progression-free survival outcome in words ([1]; versus chemotherapy): The superiority of Erdafitinib relative to chemotherapy, in terms of PFS, was established; also recorded: significantly prolonged PFS; also recorded: generally consistent in the subgroups evaluated
- Confirmed complete response (CR) ([1]; ≥2 consecutive assessments): 5.1%
- Confirmed partial response (PR) ([1]; ≥2 consecutive assessments): 30.1%
- Cell viability [2]: decreased cell viability in cell lines expressing FGFR genetic alterations, including point mutations, amplifications, and fusions
- Dose proportionality of exposure (Cmax and AUC) (0.5 to 12 mg, single and repeat once daily dosing): increased proportionally across the dose range of 0.5 to 12 mg
- Effect of food on exposure (high-fat and high-calorie meal): No clinically meaningful differences in erdafitinib exposure
- Time to steady state (once daily dosing): 2 weeks
- Effect of age, sex, race, body weight, hepatic or renal impairment on exposure (specific populations): No clinically meaningful effects on erdafitinib exposure were observed based on age (21-92 years), sex, race (White, Hispanic or Asian), body weight (36-166 kg), mild (Child-Pugh A) or moderate (Child-Pugh B) hepatic impairment, or mild to moderate renal impairment (eGFR 30 to 89 mL/min/1.73 m^2)
